Legend:
[1] = tested on: middle cerebral artery ischemia model of rat; test: Infarction inhibiting action in middle cerebral artery ischemia (MCAo-recirculation) model of rat; type: in vivo; details: ip, 24 h, 3 mg/kg i.p. 10 minutes before occlusion and 1 hour after recirculation, infarction volume one day after, vs control group, read-out: Rate of inhibition of infarction
From the text: It is also known that, in this way, in the acute stage of cerebral infarction, the lesion proceeds to the peripheral tissue from the core of infarction, and death of the nerve cells is extended with the passage of several days. This possible not only extends and creates grave aftereffects, and causes loss of motor and mental function, but also finally critically influences on the life. As an in vivo experimental model of cerebral infarction which is capable of precisely evaluating the clinical effect of a medicine in conformity with clinical conditions of the disease of a patient of cerebral infarction, the middle cerebral artery occlusion (MCAo)-recirculation model comprising an embolus with a yarn using Wister rates may be used [Document: Japan Journal of Stroke, vol. 8, 1 (1986)]. […] This action was evaluated by applying the MCAo model by the method which will be described below.
In rats of 10 weeks old, after etherization, a median incision of the cervical region was made up to the right carotid artery bifurcation under 1.0% halothane anesthetization with care to preserve the vagus nerves. The common carotid artery and the external carotid artery were separated from the periphery connective tissue with the right carotid artery bifurcation as the center, and each of the arteries was ligated by a 6-0 silk yarn (Eto yarn). Further, a yarn was wound on the internal carotid artery origin in preparation for ligation and fixing after insertion of the embolus. Next, the common carotid artery was incised, and the embolus was inserted from the common carotid artery to the internal carotid artery by about 15 to 16 mm, and ligated and fixed to the internal carotid artery by the silk yarn at the end thereof near the nylon yarn. In this operation, the end of the embolus was inserted into the anterior cerebral artery by about 1 to 2 mm beyond the middle cerebral artery bifurcation, and the inlet of the middle cerebral artery was occluded by the body (resin part) of the embolus for 1 hours. In recirculation, the embolus with a yarn was removed to recirculate the blood flow to the middle cerebral artery. 3 mg/kg of each of test compounds was intraperitoneally administered 10 minutes before occlusion and 1 hour after recirculation of the blood flow. One day after occlusion and recirculation, the whole body was perfused with physiologic saline through the heart, and the brain was extracted. The extracted brain was cooled with ice and water for 5 minutes, and cut at intervals of 2.0 mm to form 7 sections of the cerebral coronal surface. Each of the sections was stained with TTC (Triphenyltetrazolium Chloride), and fixed by a 5% neutral buffer formalin solution. In each of the sections, the infarction area in the right cerebral hemisphere was measured by an image analyzer (Olympus), and the infarction was evaluated by volume (mm^3). The infarction volume was compared with the infarction volume of a control group to calculate the rate of inhibition of infarction.

cultured nerve cells = test: Action of protecting cultured nerve cells from glutamic acid toxicity (LDH leakage); type: cell-based, Wistar rat; details: rat fetal cerebral cortex cells, 10 mM glutamic acid, 24 hours, read-out: ED50 (the source's name)
From the text: It is known that when the blood flow to the brain is temporarily clogged due to cerebral ischemia, hypoxia, or an trauma, delayed cerebral neuronal death is induced [Document: Brain Research, Vol. 239, 57 (1982)]. A possible cause of such damage of the cerebral nerve cells is excitatory toxicity due to an excitatory neutotransmitter such as glutamic acid or the like, which is excessively released with ischemia [Document: Trends in Neuroscience, vol. 10, 299 (1987)]. […] This is a problem to be solved by the invention. This action was evaluated by using the in vitro evaluation system which will be described below.
A fetus was taken from the abdomen of a Wistar female rat on the 18 to 19th day of pregnancy under aseptic conditions, and the head of the fetus was opened to extract the brain. The brain was placed in an ice-cooled L-15 medium, and the cerebral cortex was separated under a microscope. The cerebral cortexes of about 30 rats were cut into pieces, and then suspended in 10 ml of a 0.25% trypsin solution and 0.2 ml of a 0.01% DNase solution, followed by culture at 37° C. for 30 minutes. Then, 2 ml of serum was added to the solution, and immediately the resultant mixture was centrifuged at 120 rpm for 2 minutes to separate the precipitates. To the precipitates was added 7 ml of a DF medium (a medium obtained by adding 20 nM of transferrin, 5 μg/ml of insulin, 20 nM of progesterone,60 nM of selenite, 50 U/ml of penicillin, and 50 U/ml of streptomycin to a mixture equivalent amounts of Dulbecco modified Eagle medium and F-12 medium), followed by 20 pipetting operations using a 10-ml plastic pipette to obtain a cell suspension. The cell suspension was filtered with nylon mesh (pore diameter 43 μm) to fractionate isolated cells. The thus-obtained isolated cells were diluted with a DF medium to a concentration of 6.0×10^5 cells/ml, and 500 μl of the diluted cells was inoculated in each of the 48 wells of a 48-well culture plate precoated with polylysine, followed by culture at 37° C. for 1 day in the presence of 5% of CO2. On the 2nd day, the medium was changed to a new DF medium, and 10 μl of a solution of 0.5M glutamic acid in distilled water was added to each of the wells (the final glutamic acid concentration was 10 mM), followed by further culture at 37° C. for 24 hours in the presence 5% of CO2. A test compound was dissolved in distilled water, 10% or 100% DMSO or 10% methanol, and 5 μl of the solution was added to each of the wells immediately before glutamic acid was added. As an index of nerve cell damage, the enzyme activity of lactic acid dehydrogenase (LDH) leaking from the damaged cells into the medium was measured. For each of the test compounds, the LDH leakage was measured at each of concentrations to determine a dose-response curve by the modified Cochran-Armitige method. The 50% effective dose (ED50) of each of the test compounds we determined from the curve.

## Cn1c2c(c3cc4c5c(cccc5c31)-c1ccccc1-4)C[C@@]1(O)[C@H]3Cc4ccc(O)c5c4[C@@]1(CCN3CC1CC1)[C@H]2O5 [Compound 77, 17-cyclopropylmethyl-3,14β-dihydroxy-6,7-dehydro-4,5α-epoxy-6,7,2',3'-(1'-methyl-5',6"-benzeno-6',7'-benzoindolo)morphinan]
[1]
  inhibition in vivo at 3 mg/kg: 84%
Cultured nerve cells
  EC50: 160 nM

## CCCCCCCc1cccc2[nH]c3c(c12)C[C@@]1(O)[C@H]2Cc4ccc(O)c5c4[C@@]1(CCN2CC1CC1)[C@H]3O5 [Compound 6, 17-cyclopropylmethyl-3,14β-dihydroxy-6,7-dehydro-4,5α-epoxy-6,7,2',3'-(4'-heptylindolo)morphinan]
[1]
  inhibition in vivo at 3 mg/kg: 33%
Cultured nerve cells
  EC50: 400 nM

## Oc1ccc2c3c1O[C@H]1c4[nH]c5c(ccc6cccc(Cl)c65)c4C[C@@]4(O)[C@@H](C2)N(CC2CC2)CC[C@]314 [Compound 12, 17-cyclopropylmethyl-3,14β-dihydroxy-6,7-dehydro-4,5α-epoxy-6,7,2',3'-(3"-chloro-6',7'-benzoindolo)morphinan]
[1]
  inhibition in vivo at 3 mg/kg: 67%
Cultured nerve cells
  EC50: 35 nM

## Oc1ccc2c3c1O[C@H]1c4[nH]c5c(cc6c7c(cccc75)CC6)c4C[C@@]4(O)[C@@H](C2)N(CC2CC2)CC[C@]314 [Compound 3, 17-cyclopropylmethyl-3,14β-dihydroxy-6,7-dehydro-4,5α-epoxy-6,7,2',3'-(5',6"-ethano-6',7'-benzoindolo)morphinan]
[1]
  inhibition in vivo at 3 mg/kg: 54%
Cultured nerve cells
  EC50: 53 nM

## Oc1ccc2c3c1O[C@H]1c4c(c5ccc6ccccc6c5n4CCc4ccccc4)C[C@@]4(O)[C@@H](C2)N(CC2CC2)CC[C@]314 [Compound 80, 17-cyclopropylmethyl-3,14β-dihydroxy-6,7-dehydro-4,5α-epoxy-6,7,2',3'-[1'-(2-phenylethyl)-6',7'-benzoindolo]morphinan]
[1]
  inhibition in vivo at 3 mg/kg: 29%
Cultured nerve cells
  EC50: 37 nM

## O=C(NCCCn1c2c(c3ccccc31)C[C@@]1(O)[C@H]3Cc4ccc(O)c5c4[C@@]1(CCN3CC1CC1)[C@H]2O5)c1ccccc1 [Compound 61, 17-cyclopropylmethyl-3,14β-dihydroxy-6,7-dehydro-4,5α-epoxy-6,7,2',3'-[1'-(3-benzamidopropyl)indolo]morphinan]
[1]
  inhibition in vivo at 3 mg/kg: 29%
Cultured nerve cells
  EC50: 140 nM

## OCCn1c2c(c3ccc4ccccc4c31)C[C@@]1(O)[C@H]3Cc4ccc(O)c5c4[C@@]1(CCN3CC1CC1)[C@H]2O5 [Compound 81, 17-cyclopropylmethyl-3,14β-dihydroxy-6,7-dehydro-4,5α-epoxy-6,7,2',3'-[1'-(2-hydroxyethyl)-6',7'-benzoindolo]morphinan]
[1]
  inhibition in vivo at 3 mg/kg: 11%
Cultured nerve cells
  EC50: 67 nM

## Oc1ccc2c3c1O[C@H]1c4[nH]c5c(cc(Br)c6ccccc65)c4C[C@@]4(O)[C@@H](C2)N(CC2CC2)CC[C@]314 [Compound 9, 17-cyclopropylmethyl-3,14β-dihydroxy-6,7-dehydro-4,5α-epoxy-6,7,2',3'-(5'-bromo-6',7'-benzoindolo)morphinan]
[1]
  inhibition in vivo at 3 mg/kg: 9%
Cultured nerve cells
  EC50: 110 nM

## Oc1ccc2c3c1O[C@H]1c4[nH]c5cc(C6CCCCC6)ccc5c4C[C@@]4(O)[C@@H](C2)N(CC2CC2)CC[C@]314 [Compound 5, 17-cyclopropylmethyl-3,14β-dihydroxy-6,7-dehydro-4,5α-epoxy-6,7,2',3'-(6'-cyclohexylindolo)morphinan]
[1]
  inhibition in vivo at 3 mg/kg: 31%
Cultured nerve cells
  EC50: 120 nM

## Cn1c2c(c3ccc4ccccc4c31)C[C@@]1(O)[C@H]3Cc4ccc(O)c5c4[C@@]1(CCN3CC1CC1)[C@H]2O5 [Compound 72, 17-cyclopropylmethyl-3,14β-dihydroxy-6,7-dehydro-4,5α-epoxy-6,7,2',3'-(1'-methyl-6',7'-benzoindolo)morphinan]
[1]
  inhibition in vivo at 3 mg/kg: 85%
Cultured nerve cells
  EC50: 26 nM

## Oc1ccc2c3c1O[C@H]1c4c(c5cc6c7c(cccc7c5n4Cc4ccccc4)-c4ccccc4-6)C[C@@]4(O)[C@@H](C2)N(CC2CC2)CC[C@]314 [Compound 79, 17-cyclopropylmethyl-3,14β-dihydroxy-6,7-dehydro-4,5α-epoxy-6,7,2',3'-(1'-benzyl-5',6"-benzeno-6',7'-benzoindolo)morphinan]
[1]
  inhibition in vivo at 3 mg/kg: 26%
Cultured nerve cells
  EC50: 190 nM

## CN1CC[C@]23c4c5ccc(O)c4O[C@H]2c2[nH]c4c(ccc6ccccc64)c2C[C@@]3(O)[C@H]1C5 [Compound 74, 17-methyl-3,14β-dihydroxy-6,7-dehydro-4,5α-epoxy-6,7,2',3'-(6',7'-benzoindolo)morphinan]
[1]
  inhibition in vivo at 3 mg/kg: 27%

## Oc1ccc2c3c1O[C@H]1c4[nH]c5c(ccc6ccccc65)c4C[C@@]4(O)[C@@H](C2)N(CCc2ccccc2)CC[C@]314 [Compound 75, 17-(2-phenylethyl)-3,14β-dihydroxy-6,7-dehydro-4,5α-epoxy-6,7,2',3'-(6',7'-benzoindolo)morphinan]
[1]
  inhibition in vivo at 3 mg/kg: 30%

## NCCCn1c2c(c3ccc4ccccc4c31)C[C@@]1(O)[C@H]3Cc4ccc(O)c5c4[C@@]1(CCN3CC1CC1)[C@H]2O5 [Compound 25, 17-cyclopropylmethyl-3,14β-dihydroxy-6,7-dehydro-4,5α-epoxy-6,7,2',3'-[1'-(3-aminopropyl)-6',7'-benzoindolo]morphinan]
[1]
  inhibition in vivo at 3 mg/kg: 15%
Cultured nerve cells
  EC50: 300 nM

## Oc1ccc2c3c1O[C@H]1c4[nH]c5c(cc(Cl)c6ccccc65)c4C[C@@]4(O)[C@@H](C2)N(CC2CC2)CC[C@]314 [Compound 10, 17-cyclopropylmethyl-3,14β-dihydroxy-6,7-dehydro-4,5α-epoxy-6,7,2',3'-(5'-chloro-6',7'-benzoindolo)morphinan]
[1]
  inhibition in vivo at 3 mg/kg: 15%

## Oc1ccc2c3c1O[C@H]1c4[nH]c5c6ccccc6c6ccccc6c5c4C[C@@]4(O)[C@@H](C2)N(CC2CC2)CC[C@]314 [Compound 23, 17-cyclopropylmethyl-3,14β-dihydroxy-6,7-dehydro-4,5α-epoxy-6,7,2',3'-(4',5',6',7'-debenzoindolo)morphinan]
[1]
  inhibition in vivo at 3 mg/kg: 79%

## CS(=O)(=O)n1c2c(c3ccc4ccccc4c31)C[C@@]1(O)[C@H]3Cc4ccc(O)c5c4[C@@]1(CCN3CC1CC1)[C@H]2O5 [Compound 78, 17-cyclopropylmethyl-3,14β-dihydroxy-6,7-dehydro-4,5α-epoxy-6,7,2',3'-(1'-methylsulfonyl 6',7'-benzoindolo)morphinan]
[1]
  inhibition in vivo at 3 mg/kg: 55%

## Oc1ccc2c3c1O[C@H]1c4[nH]c5c(ccc6ccccc65)c4C[C@@]4(O)[C@@H](C2)N(CC2CCC2)CC[C@]314 [Compound 76, 17-cyclobutylmethyl-3,14β-dihydroxy-6,7-dehydro-4,5α-epoxy-6,7,2',3'-(6',7'-benzoindolo)morphinan]
[1]
  inhibition in vivo at 3 mg/kg: 65%

From patent US6156762A, “Indolomorphinan derivative and agent for curing and preventing cerebral disorder” (Toray Industries, Inc., priority 1997, dated 2000)
